Assay results as given in patent US11089783B2, “2-(het)aryl-substituted fused heterocycle derivatives as pesticides” (Bayer Aktiengesellschaft, priority 2017, dated 2021).

Key:
Format in all cases: in vivo
Phaedon cochleariae [1] = test: Phaedon cochleariae spray test (PHAECO S), cabbage leaves; details: 20 ppm, 7 dat
Experimental: (§1) [table] To produce an appropriate active ingredient formulation, 1 part by weight of active ingredient is dissolved with the specified parts by weight of solvent and made up with water containing an emulsifier concentration of 1000 ppm until the desired concentration is attained. To produce further test concentrations, the mixture is diluted with emulsifier-containing water. If addition of ammonium salts or/and penetrants is required, these are each added to the preparation solution in a concentration of 1000 ppm. Cabbage leaves (Brassica oleracea) are sprayed with an active ingredient formulation of the desired concentration and populated with larvae of the mustard beetle (Phaedon cochleariae). After the desired time, the kill in % is determined. 100% means that all beetle larvae have been killed; 0% means that no beetle larvae have been killed.

Phaedon cochleariae [2] = test: Phaedon cochleariae spray test (PHAECO), Chinese cabbage leaf discs; details: for pest or weed control at 100 g/ha: 7 days (7 dat), read-out: efficacy
Experimental: (§2) [table] To produce a suitable active ingredient formulation, 1 part by weight of active ingredient is dissolved with the specified parts by weight of solvent and made up to the desired concentration with water containing an emulsifier concentration of 1000 ppm. To produce further test concentrations, the formulation is diluted with emulsifier-containing water. Discs of Chinese cabbage leaves (Brassica pekinensis) are sprayed with an active ingredient formulation of the desired concentration and, after drying, populated with larvae of the mustard beetle (Phaedon cochleariae). After 7 days, the efficacy in % is determined. 100% means that all the beetle larvae have been killed; 0% means that no beetle larvae have been killed. [table] To produce an appropriate active ingredient formulation, 1 part by weight of active ingredient is dissolved with the stated parts by weight of solvent and made up with water containing an emulsifier concentration of 1000 ppm until the desired concentration is attained. For production of further test concentrations, the mixture is diluted with emulsifier-containing water. Discs of chinese cabbage leaves (Brassica pekinensis) are sprayed with an active ingredient formulation of the desired concentration and, after drying, populated with larvae of the mustard beetle (Phaedon cochleariae). After the desired time, the efficacy in % is determined. 100% means that all beetle larvae have been killed; 0% means that no beetle larvae have been killed.

Meloidogyne incognita = Meloidogyne incognita test (MELGIN); details: 20 ppm, 14 days (14 dat)
Experimental: [table] To produce a suitable active ingredient formulation, 1 part by weight of active ingredient is mixed with the stated amount of solvent and the concentrate is diluted to the desired concentration with water. Vessels are filled with sand, active ingredient solution, an egg/larvae suspension of the southern root-knot nematode (Meloidogyne incognita) and lettuce seeds. The lettuce seeds germinate and the plants develop. The galls develop on the roots. After 14 days, the nematicidal efficacy in % is determined by the formation of galls. 100% means that no galls were found; 0% means that the number of galls on the treated plants corresponds to the untreated control. [table] To produce an appropriate active ingredient formulation, 1 part by weight of active ingredient is mixed with the specified amount of solvent and the concentrate is diluted to the desired concentration with water. Vessels are filled with sand, active ingredient solution, an egg/larvae suspension of the southern root-knot nematode (Meloidogyne incognita) and lettuce seeds. The lettuce seeds germinate and the plants develop. The root-knots develop on the roots. After the desired time, the nematicidal effect is determined from the formation of root-knots in %. 100% means that no root-knots were found; 0% means that the number of root-knots on the treated plants corresponds to that on the untreated control.

Myzus persicae [3] = test: Myzus persicae spray test (MYZUPE), Chinese cabbage leaf discs; details: Myzus persicae, foliar, 120 h; for pest or weed control at 100 g/ha / pest or weed control at 20 g/ha: 5 days (5 dat), read-out: efficacy
Experimental: as §2, with “pekinensis) infested by all stages of the green peach aphid (Myzus persicae)” for “pekinensis)”, “concentration.” for “concentration and, after drying, populated with larvae of the mustard beetle (Phaedon cochleariae).”, “5” for “7”, “aphids” for “beetle larvae”

Nezara viridula = Nezara viridula spray test (NEZARA / NEZAVI); details: 4 dat; for % efficacy: 500 g/ha
Experimental: as §1, with “ppm. Barley plants (Hordeum vulgare) infected with larvae of the southern green shield bug (Nezara viridula)” for “ppm. Cabbage leaves (Brassica oleracea)”, “desired concentration.” for “desired concentration and populated with larvae of the mustard beetle (Phaedon cochleariae).”, “the efficacy” for “the kill”, “all bugs” for “all beetle larvae”, “no bugs” for “no beetle larvae”

Nilaparvata lugens = Nilaparvata lugens spray test (NILALU); details: 4 dat; for % efficacy / Emax at 20 g/ha: 20 g/ha
Experimental: [table] To produce an appropriate active ingredient formulation, 1 part by weight of active ingredient is dissolved with the specified parts by weight of solvent and made up with water containing an emulsifier concentration of 1000 ppm until the desired concentration is attained. To produce further test concentrations, the mixture is diluted with emulsifier-containing water. If addition of ammonium salts or/and penetrants is required, these are each added to the preparation solution in a concentration of 1000 ppm. Rice plants (Oryza sativa) are sprayed with an active ingredient formulation of the desired concentration and then populated with larvae of the brown planthopper (Nilaparvata lugens). After the desired time, the efficacy in % is determined. 100% means that all planthoppers have been killed; 0% means that no planthoppers have been killed.

Myzus persicae [4] = test: Myzus persicae oral test; details: 120 h, after 5 days, read-out: efficacy
Experimental: [table] To produce a suitable active ingredient formulation, 1 part by weight of active ingredient is dissolved with the stated parts by weight of solvent and made up to the desired concentration with water. 50 μl of the active ingredient preparation are transferred into microtitre plates and made up to a final volume of 200 μl with 150 μl of IPL41 insect medium (33%+15% sugar). Subsequently, the plates are sealed with parafilm, which a mixed population of green peach aphids (Myzus persicae) within a second microtitre plate is able to puncture and imbibe the solution. After 5 days, the efficacy in % is determined. 100% means that all the aphids have been killed; 0% means that no aphids have been killed.

Lucilia cuprina = Lucilia cuprina test; details: 48 h, L1 larvae, after 2 days, read-out: efficacy (kill)
Experimental: Solvent: dimethyl sulfoxide To produce a suitable active ingredient formulation, 10 mg of active ingredient are mixed with 0.5 ml of dimethyl sulfoxide, and the concentrate is diluted with water to the desired concentration. About 20 L1 larvae of the Australian sheep blowfly (Lucilia cuprina) are transferred into a test vessel containing minced horsemeat and the active ingredient formulation of the desired concentration. After 2 days, the kill in % is determined. 100% means that all the larvae have been killed; 0% means that no larvae have been killed.

Aphis gossypii = Aphis gossypii spray test (APHIGO), cotton plants; details: Aphis gossypii, 144 h, 6 dat, read-out: % efficacy
Experimental: as §1, with “Cotton plants (Gossypium hirsutum) severely infested by the cotton aphid (Aphis gossypii)” for “Cabbage leaves (Brassica oleracea)”, “concentration.” for “concentration and populated with larvae of the mustard beetle (Phaedon cochleariae).”, “aphids” for “beetle larvae”

Myzus persicae [5] = test: Myzus persicae spray test (MYZUPE S), bell pepper plants; details: 144 h, 4 ppm, 6 dat, read-out: % efficacy
Experimental: [table] To produce an appropriate active ingredient formulation, 1 part by weight of active ingredient is dissolved with the specified parts by weight of solvent and made up with water containing an emulsifier concentration of 1000 ppm until the desired concentration is attained. To produce further test concentrations, the mixture is diluted with emulsifier-containing water. If addition of ammonium salts or/and penetrants is required, these are each added to the preparation solution in a concentration of 1000 ppm. Bell pepper plants (Capsicum annuum) severely infested by the green peach aphid (Myzus persicae) are treated by spraying with the active ingredient formulation in the desired concentration. After the desired time, the kill in % is determined. 100% means that all the animals have been killed; 0% means that no animals have been killed.

Tetranychus urticae = Tetranychus urticae spray test, OP-resistant (TETRUR); details: Tetranychus urticae, 144 h; TETRUR, 100 g/ha, 6 dat; read-out: % efficacy
Experimental: [table] To produce a suitable active ingredient formulation, 1 part by weight of active ingredient is dissolved with the specified parts by weight of solvent and made up to the desired concentration with water containing an emulsifier concentration of 1000 ppm. To produce further test concentrations, the formulation is diluted with emulsifier-containing water. Discs of bean leaves (Phaseolus vulgaris) infested with all stages of the greenhouse red spider mite (Tetranychus urticae) are sprayed with an active ingredient formulation of the desired concentration. After 6 days, the efficacy in % is determined. 100% means that all the spider mites have been killed; 0% means that no spider mites have been killed.

Myzus persicae [6] = test: Myzus persicae drench test (MYZUPE D), savoy cabbage plants; details: soil, 240 h, 10 dat, read-out: % efficacy
Experimental: [table] To produce an appropriate active ingredient formulation, 1 part by weight of active ingredient is mixed with the specified amounts of solvent and emulsifier and the concentrate is diluted to the desired concentration with water, it being necessary to take into account the volume of soil into which drenching is effected. It should be ensured that a concentration of 40 ppm of emulsifier in the soil is not exceeded. For production of further test concentrations, the mixture is diluted with water. Savoy cabbage plants (Brassica oleracea) in soil pots, infested by all stages of the green peach aphid (Myzus persicae), are drenched with an active ingredient formulation of the desired concentration. After the desired time, the efficacy in % is determined. 100% means that all the aphids have been killed; 0% means that no aphids have been killed.

[7] = Phaedon cochleariae, foliar, 168 h
[8] = Phaedon cochleariae, foliar, 168 h, PHAECO, 20 g/ha, 7 dat
[9] = Nilaparvata lugens, 96 h, read-out: % efficacy

Compound	% efficacy (Phaedon cochleariae [1]) [%]	% efficacy (Phaedon cochleariae [2]; PHAECO, 0.8 g/ha, 7 dat) [%]	% efficacy (Phaedon cochleariae [2]; PHAECO, 4 g/ha, 7 dat) [%]	pest or weed control at 100 g/ha (Phaedon cochleariae [2]; [7]) [%]	efficacy (nematicidal, gall formation) (Meloidogyne incognita) [%]	pest or weed control at 100 g/ha (Myzus persicae [3]) [%]	% efficacy (Nezara viridula) [%]	% efficacy (Nilaparvata lugens) [%]	pest or weed control at 0.8 ppm (Myzus persicae [4]) [%]	pest or weed control at 100 ppm (Lucilia cuprina) [%]	Emax at 4 ppm (Aphis gossypii) [%]	percent efficacy (larval mortality) at a fixed application rate at 20 g/ha (Phaedon cochleariae [2]; [8]) [%]	Emax at 4 ppm (Myzus persicae [5]) [%]	pest or weed control at 20 g/ha (Myzus persicae [3]) [%]	Emax at 20 g/ha (Nilaparvata lugens; [9]) [%]	Emax at 100 g/ha (Nilaparvata lugens; [9]) [%]	further results
CCS(=O)(=O)c1ccc(C(N)=O)nc1-c1nc2cc(C(F)(F)C(F)(F)F)nnc2n1C [Example I-02]	100	83	100	100	90	100	90	90	100	100							
CCS(=O)(=O)c1ccc(C(=O)NC2CC2)nc1-c1nc2cc(C(F)(F)C(F)(F)F)nnc2n1C [Example I-03]				100		100			100	100	95	100	100	90	80	100	
CCS(=O)(=O)c1ccc(C(N)=O)nc1-c1nc2cc(C(F)(F)C(F)(F)F)nnc2n1C [drawing 40, reference compound]	0	0	33		0		0	50									
CCS(=O)(=O)c1ccc(C(=O)NC2CC2)nc1-c1nc2cc(C(F)(F)F)nnc2n1C [reference compound]				33							0	33	0	0	0	0	
CCS(=O)(=O)c1ccc(NC(=O)N(C)C)nc1-c1nc2cc(C(F)(F)F)nnc2n1C [reference compound]											15						Emax at 20 ppm (Phaedon cochleariae [1]; Phaedon cochleariae, 168 h, read-out: % efficacy): 20%; Emax at 100 g/ha (Tetranychus urticae): 0%; Emax at 4 g/ha (Myzus persicae [3]; MYZUPE, 4 g/ha, 5 dat, read-out: % efficacy): 0%; Emax at 4 g/ha (Nezara viridula; Nezara viridula, 96 h, 4 g/ha, read-out: % efficacy): 0%; Emax at 4 g/ha (Nilaparvata lugens; Nilaparvata lugens, 96 h, 4 g/ha, read-out: % efficacy): 0%
CNC(=O)Nc1ccc(S(C)(=O)=O)c(-c2nc3cc(C(F)(F)F)nnc3n2C)n1 [reference compound]				33													Emax at 0.8 ppm (Myzus persicae [6]; 0.8 ppm): 0%; Emax at 4 ppm (Myzus persicae [6]; 4 ppm): 0%; Emax at 20 ppm (Aphis gossypii; 20 ppm): 0%; Emax at 20 g/ha (Phaedon cochleariae [2]; Phaedon cochleariae, foliar, 168 h, PHAECO, 20 g/ha, 7 dat, read-out: % efficacy): 0%; Emax at 20 g/ha (Nezara viridula; Nezara viridula, 96 h, 20 g/ha, read-out: % efficacy): 0%
